The values that follow come from ChEMBL document CHEMBL5143525, “N-methylated diazabicyclo[3.2.2]nonane substituted triterpenoic acids are excellent, hyperbolic and selective inhibitors for butyrylcholinesterase” (Eur J Med Chem, 2022).

Active and inactive are the calls of the source. The rule behind the calls is not given here.

The target in this assay is Cholinesterase (Equus caballus) (UniProt P81908). Put plainly: Mixed type inhibition of equine serum BuChE by Dixon plot analysis.
Sequence of Cholinesterase (Equus caballus) (P81908 whole entry): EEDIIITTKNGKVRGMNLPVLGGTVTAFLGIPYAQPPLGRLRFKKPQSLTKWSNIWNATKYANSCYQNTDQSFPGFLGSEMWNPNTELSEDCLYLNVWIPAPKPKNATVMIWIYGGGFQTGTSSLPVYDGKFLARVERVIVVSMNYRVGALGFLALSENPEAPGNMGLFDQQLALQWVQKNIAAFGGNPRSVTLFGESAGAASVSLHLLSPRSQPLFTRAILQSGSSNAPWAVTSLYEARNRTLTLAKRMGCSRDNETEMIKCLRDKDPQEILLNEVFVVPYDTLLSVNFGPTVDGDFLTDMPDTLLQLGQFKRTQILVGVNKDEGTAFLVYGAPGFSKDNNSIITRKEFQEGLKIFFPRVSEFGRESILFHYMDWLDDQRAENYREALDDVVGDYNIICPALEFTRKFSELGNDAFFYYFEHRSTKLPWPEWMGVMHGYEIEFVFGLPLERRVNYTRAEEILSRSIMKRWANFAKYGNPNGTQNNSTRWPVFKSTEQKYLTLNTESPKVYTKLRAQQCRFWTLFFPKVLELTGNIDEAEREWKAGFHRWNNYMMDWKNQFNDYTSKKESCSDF

For the molecule `CC(=O)O[C@H]1CC[C@]2(C)[C@H]3C(=O)C[C@H]4[C@@H]5C[C@@](C)(C(=O)N6CC7CC[N+](C)(CC7)C6)CC[C@]5(C)CC[C@@]4(C)[C@]3(C)CC[C@H]2C1(C)C`, the inhibition mechanism result is “Active”. For `CC(=O)O[C@H]1CC[C@]2(C)[C@H]3CC=C4[C@@H]5CC(C)(C)CC[C@]5(C(=O)N5CC6CC[N+](C)(CC6)C5)CC[C@@]4(C)[C@]3(C)CC[C@H]2C1(C)C` the value was “Active”. Consider `CC(=O)O[C@H]1CC[C@]2(C)[C@H]3CC[C@H]4[C@@H]5[C@H](C(C)=O)CC[C@]5(C(=O)N5CC6CC[N+](C)(CC6)C5)CC[C@@]4(C)[C@]3(C)CC[C@H]2C1(C)C`, for which the inhibition mechanism result was “Active”.

On to `CC(=O)O[C@H]1CC[C@]2(C)[C@H]3CC=C4[C@@H]5[C@@H](C)[C@H](C)CC[C@]5(C(=O)N5CC6CC[N+](C)(CC6)C5)CC[C@@]4(C)[C@]3(C)CC[C@H]2C1(C)C`, for which the inhibition mechanism result is “Active”. For `C=C(C)[C@@H]1CC[C@]2(C(=O)N3CC4CC[N+](C)(CC4)C3)CC[C@]3(C)[C@@H](CC[C@@H]4[C@@]5(C)CC[C@H](OC(C)=O)C(C)(C)[C@@H]5CC[C@]43C)[C@H]12` the value was “Active”.
